Here are results for 5 compounds from US12723063B2, “GIPR-agonist compounds” (Eli Lilly and Company, priority 2019, dated 2026).

The structures appear in SMILES notation. *1 amine or outer side, *2 acyl side, *3 side chain or, on linkers, in order; H or OH if unused. Where a SMILES comes first, the peptide text is derived from it. Side-chain parts run from the residue outwards. [ ]: non-standard residue; d: D form. The star is where a group is joined. C20 diacid = O=C(O)CCCCCCCCCCCCCCCCCCC(=O)*; C18 diacid = O=C(O)CCCCCCCCCCCCCCCCC(=O)*; αMePhe(2-F) = C[C@](N)(Cc1ccccc1F)C(=O)O; γGlu = O=C(O)[C@H](CCC(=O)[*:2])N[*:1]; αMeF = C[C@](N)(Cc1ccccc1)C(=O)O; αMeL = CC(C)C[C@](C)(N)C(=O)O; Orn = NCCC[C@H](N)C(=O)O; AEEA = NCCOCCOCC(=O)O; Aib = CC(C)(N)C(=O)O

Common to all, as to experiment: cAMP functional assay (HTRF) in HEK293 cells in presence of 0.1% casein
What all share (assay type): cell-based

Assay [1] concerns the target T1, human GLP-1 receptor (GLP-1R) (Homo sapiens, UniProt P43220).
T1 construct: expressed in transfected cells; host or cells: HEK293
To be noted: HEK293 cells expressing human GLP-1R, geometric mean, read-out: hGLP1R cAMP Rel EC50 nM (SEM, n).

For assay [2], the target named is T2, human glucagon receptor (GcgR) (Homo sapiens, UniProt P47871).
T2 construct: expressed in transfected cells; host or cells: HEK293
The settings on record: HEK293 cells expressing human GcgR, geometric mean, read-out: hGcgR cAMP Rel EC50 nM (SEM, n).

Assay [3] addresses T3, human glucose-dependent insulinotropic peptide receptor (GIPR) (Homo sapiens, UniProt P48546).
T3 construct: expressed in transfected cells; host or cells: HEK293
T3 sequence (P48546 22-466): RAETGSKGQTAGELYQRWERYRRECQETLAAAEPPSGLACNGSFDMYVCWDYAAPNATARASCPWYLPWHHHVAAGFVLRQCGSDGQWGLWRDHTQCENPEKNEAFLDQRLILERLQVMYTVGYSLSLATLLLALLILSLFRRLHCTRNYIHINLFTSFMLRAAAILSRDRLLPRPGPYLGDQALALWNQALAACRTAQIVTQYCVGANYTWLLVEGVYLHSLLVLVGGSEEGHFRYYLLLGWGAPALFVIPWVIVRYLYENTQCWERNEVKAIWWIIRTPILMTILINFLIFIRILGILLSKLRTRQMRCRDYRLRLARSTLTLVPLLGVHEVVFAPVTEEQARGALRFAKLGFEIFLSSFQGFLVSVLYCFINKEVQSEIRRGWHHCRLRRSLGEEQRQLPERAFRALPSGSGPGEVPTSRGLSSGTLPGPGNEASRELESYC
To be noted: HEK293 cells expressing human GIPR, geometric mean, read-out: hGIPR cAMP Rel EC50 nM (SEM, n).

T1 sequence (P43220 24-463): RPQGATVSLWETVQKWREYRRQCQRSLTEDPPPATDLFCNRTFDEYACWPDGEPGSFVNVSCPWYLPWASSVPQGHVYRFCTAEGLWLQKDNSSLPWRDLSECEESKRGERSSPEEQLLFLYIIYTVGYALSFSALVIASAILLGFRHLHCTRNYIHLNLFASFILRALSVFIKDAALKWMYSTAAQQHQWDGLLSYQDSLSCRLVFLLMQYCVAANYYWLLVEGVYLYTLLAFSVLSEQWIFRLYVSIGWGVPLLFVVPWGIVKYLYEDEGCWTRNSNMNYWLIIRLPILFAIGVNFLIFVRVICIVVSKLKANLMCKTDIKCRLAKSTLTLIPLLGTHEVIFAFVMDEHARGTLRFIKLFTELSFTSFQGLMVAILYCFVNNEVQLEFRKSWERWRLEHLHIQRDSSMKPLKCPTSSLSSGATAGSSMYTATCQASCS
T2 sequence (P47871 26-477): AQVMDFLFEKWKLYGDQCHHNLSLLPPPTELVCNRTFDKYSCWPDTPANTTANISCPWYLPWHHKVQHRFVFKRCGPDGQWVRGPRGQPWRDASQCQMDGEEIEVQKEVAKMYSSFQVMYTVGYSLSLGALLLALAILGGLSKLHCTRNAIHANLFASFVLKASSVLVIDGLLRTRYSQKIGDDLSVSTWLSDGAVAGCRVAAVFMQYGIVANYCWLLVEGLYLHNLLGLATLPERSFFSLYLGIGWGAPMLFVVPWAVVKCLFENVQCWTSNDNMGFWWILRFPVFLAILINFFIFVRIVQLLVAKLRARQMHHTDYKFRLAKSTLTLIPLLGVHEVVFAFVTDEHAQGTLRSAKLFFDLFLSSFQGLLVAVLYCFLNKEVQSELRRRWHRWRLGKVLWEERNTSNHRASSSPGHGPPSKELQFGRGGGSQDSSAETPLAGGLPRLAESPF

`CC[C@H](C)[C@H](NC(=O)[C@H](CO)NC(=O)[C@H](Cc1ccc(O)cc1)NC(=O)[C@H](CC(=O)O)NC(=O)[C@H](CO)NC(=O)[C@@H](NC(=O)[C@](C)(Cc1ccccc1)NC(=O)[C@@H](NC(=O)CNC(=O)[C@H](CCC(=O)O)NC(=O)C(C)(C)NC(=O)[C@@H](N)Cc1ccc(O)cc1)[C@@H](C)O)[C@@H](C)CC)C(=O)N[C@@H](C)C(=O)N[C@@H](CC(C)C)C(=O)N[C@@H](CC(=O)O)C(=O)N[C@@H](CCCCN)C(=O)N[C@@H](CCCCNC(=O)COCCOCCNC(=O)COCCOCCNC(=O)CC[C@H](NC(=O)CCCCCCCCCCCCCCCCCCC(=O)O)C(=O)O)C(=O)N[C@@H](Cc1c[nH]cn1)C(=O)N[C@@H](CCC(N)=O)C(=O)NC(C)(C)C(=O)N[C@@H](CCC(=O)O)C(=O)N[C@@H](Cc1ccccc1)C(=O)N[C@H](C(=O)N[C@@H](CC(N)=O)C(=O)N[C@@H](Cc1c[nH]c2ccccc12)C(=O)N[C@@H](CC(C)C)C(=O)N[C@@H](CC(C)C)C(=O)N[C@@H](C)C(=O)NCC(=O)NCC(=O)N1CCC[C@H]1C(=O)N[C@@H](CO)C(=O)N[C@@H](CO)C(=O)NCC(=O)N[C@@H](C)C(=O)N1CCC[C@H]1C(=O)N1CCC[C@H]1C(=O)N1CCC[C@H]1C(=O)N[C@@H](CO)C(N)=O)C(C)C` [Example 25] (H-Y[Aib]EGT[αMeF]ISDYSIALDKK([AEEA-AEEA-γGlu-C20 diacid])HQ[Aib]EFVNWLLAGGPSSGAPPPS-NH2): the results for the EC50 in assay [1], in assay [2] and in assay [3] were 8.39 nM, greater than 5000 nM and 0.0155 nM, respectively.
Consider `CC[C@H](C)[C@H](NC(=O)[C@H](CCCN)NC(=O)[C@H](CC(=O)O)NC(=O)[C@H](CC(C)C)NC(=O)[C@](C)(CC(C)C)NC(=O)[C@@H](NC(=O)[C@H](CO)NC(=O)[C@H](Cc1ccc(O)cc1)NC(=O)[C@H](CC(=O)O)NC(=O)[C@H](CO)NC(=O)[C@@H](NC(=O)[C@H](Cc1ccccc1)NC(=O)[C@@H](NC(=O)CNC(=O)[C@H](CCC(=O)O)NC(=O)C(C)(C)NC(=O)[C@@H](N)Cc1ccc(O)cc1)[C@@H](C)O)[C@@H](C)CC)[C@@H](C)CC)C(=O)N[C@@H](CCCNC(=N)N)C(=O)N[C@@H](CCC(N)=O)C(=O)NC(C)(C)C(=O)N[C@@H](CC(=O)O)C(=O)N[C@@H](Cc1ccccc1)C(=O)N[C@H](C(=O)N[C@@H](CCC(=O)O)C(=O)N[C@@H](Cc1ccc(O)cc1)C(=O)N[C@@H](CCCCNC(=O)COCCOCCNC(=O)COCCOCCNC(=O)CC[C@H](NC(=O)CCCCCCCCCCCCCCCCCCC(=O)O)C(=O)O)C(=O)N[C@@H](CC(C)C)C(=O)N[C@@H](CCC(=O)O)C(=O)NCC(=O)NCC(=O)N1CCC[C@H]1C(=O)N[C@@H](CO)C(=O)N[C@@H](CO)C(=O)NCC(=O)N[C@@H](C)C(=O)N1CCC[C@H]1C(=O)N1CCC[C@H]1C(=O)N1CCC[C@H]1C(=O)N[C@@H](CO)C(N)=O)C(C)C` [Example 116] (H-Y[Aib]EGTFISDYSI[αMeL]LD[Orn]IRQ[Aib]DFVEYK([AEEA-AEEA-γGlu-C20 diacid])LEGGPSSGAPPPS-NH2), for which the figures for the EC50 in assay [1], in assay [2] and in assay [3] were greater than 5000 nM, greater than 5000 nM and 0.028 nM, respectively.
As for `CC[C@H](C)[C@H](NC(=O)[C@H](CCCN)NC(=O)[C@H](CC(=O)O)NC(=O)[C@H](CC(C)C)NC(=O)[C@](C)(CC(C)C)NC(=O)[C@@H](NC(=O)[C@H](CO)NC(=O)[C@H](Cc1ccc(O)cc1)NC(=O)[C@H](CC(=O)O)NC(=O)[C@H](CO)NC(=O)[C@@H](NC(=O)[C@H](Cc1ccccc1)NC(=O)[C@@H](NC(=O)CNC(=O)[C@H](CCC(=O)O)NC(=O)C(C)(C)NC(=O)[C@@H](N)Cc1ccc(O)cc1)[C@@H](C)O)[C@@H](C)CC)[C@@H](C)CC)C(=O)N[C@@H](Cc1c[nH]cn1)C(=O)N[C@@H](CCC(N)=O)C(=O)NC(C)(C)C(=O)N[C@@H](CC(=O)O)C(=O)N[C@@H](Cc1ccccc1)C(=O)N[C@H](C(=O)N[C@@H](CCC(=O)O)C(=O)N[C@@H](Cc1ccc(O)cc1)C(=O)N[C@@H](CCCCNC(=O)COCCOCCNC(=O)COCCOCCNC(=O)CC[C@H](NC(=O)CCCCCCCCCCCCCCCCC(=O)O)C(=O)O)C(=O)N[C@@H](CC(C)C)C(=O)N[C@@H](CCC(=O)O)C(=O)NCC(=O)NCC(=O)N1CCC[C@H]1C(=O)N[C@@H](CO)C(=O)N[C@@H](CO)C(=O)NCC(=O)N[C@@H](C)C(=O)N1CCC[C@H]1C(=O)N1CCC[C@H]1C(=O)N1CCC[C@H]1C(=O)N[C@@H](CO)C(N)=O)C(C)C` [Example 103] (H-Y[Aib]EGTFISDYSI[αMeL]LD[Orn]IHQ[Aib]DFVEYK([AEEA-AEEA-γGlu-C18 diacid])LEGGPSSGAPPPS-NH2), the results for the EC50 in assay [1], in assay [2] and in assay [3] were greater than 5000 nM, greater than 5000 nM and 0.0129 nM, respectively.
`CC[C@H](C)[C@H](NC(=O)[C@H](CO)NC(=O)[C@H](Cc1ccc(O)cc1)NC(=O)[C@H](CC(=O)O)NC(=O)[C@H](CO)NC(=O)[C@@H](NC(=O)[C@](C)(Cc1ccccc1F)NC(=O)[C@@H](NC(=O)CNC(=O)[C@H](CCC(=O)O)NC(=O)C(C)(C)NC(=O)[C@@H](N)Cc1ccc(O)cc1)[C@@H](C)O)[C@@H](C)CC)C(=O)N[C@@H](C)C(=O)N[C@@H](CC(C)C)C(=O)N[C@@H](CC(=O)O)C(=O)N[C@@H](CCCCN)C(=O)N[C@H](C(=O)N[C@@H](Cc1c[nH]cn1)C(=O)N[C@@H](CCC(N)=O)C(=O)NC(C)(C)C(=O)N[C@@H](CCC(=O)O)C(=O)N[C@@H](Cc1ccccc1)C(=O)N[C@H](C(=O)N[C@@H](CC(N)=O)C(=O)N[C@@H](Cc1ccc(O)cc1)C(=O)N[C@@H](CCCCNC(=O)COCCOCCNC(=O)COCCOCCNC(=O)CC[C@H](NC(=O)CCCCCCCCCCCCCCCCCCC(=O)O)C(=O)O)C(=O)N[C@@H](CC(C)C)C(=O)N[C@@H](C)C(=O)NCC(=O)NCC(=O)N1CCC[C@H]1C(=O)N[C@@H](CO)C(=O)N[C@@H](CO)C(=O)NCC(=O)N[C@@H](C)C(=O)N1CCC[C@H]1C(=O)N1CCC[C@H]1C(=O)N1CCC[C@H]1C(=O)N[C@@H](CO)C(N)=O)C(C)C)[C@@H](C)CC` [Example 98] (H-Y[Aib]EGT[αMePhe(2-F)]ISDYSIALDKIHQ[Aib]EFVNYK([AEEA-AEEA-γGlu-C20 diacid])LAGGPSSGAPPPS-NH2): the EC50 in assay [1] is 649 nM; in assay [2], greater than 5000 nM; in assay [3], 0.00718 nM.
On to `CC[C@H](C)[C@H](NC(=O)[C@H](CO)NC(=O)[C@H](Cc1ccc(O)cc1)NC(=O)[C@H](CC(=O)O)NC(=O)[C@H](CO)NC(=O)[C@@H](NC(=O)[C@H](Cc1ccccc1)NC(=O)[C@@H](NC(=O)CNC(=O)[C@H](CCC(=O)O)NC(=O)[C@@H](C)NC(=O)[C@@H](N)Cc1ccc(O)cc1)[C@@H](C)O)[C@@H](C)CC)C(=O)N[C@@H](CC(C)C)C(=O)N[C@@H](CC(C)C)C(=O)N[C@@H](CC(=O)O)C(=O)N[C@@H](CCCCN)C(=O)N[C@@H](CCCCNC(=O)COCCOCCNC(=O)COCCOCCNC(=O)CC[C@H](NC(=O)CCCCCCCCCCCCCCCCC(=O)O)C(=O)O)C(=O)N[C@@H](C)C(=O)N[C@@H](CCC(N)=O)C(=O)NC(C)(C)C(=O)N[C@@H](CCC(=O)O)C(=O)N[C@@H](Cc1ccccc1)C(=O)N[C@H](C(=O)N[C@@H](CCC(=O)O)C(=O)N[C@@H](Cc1c[nH]c2ccccc12)C(=O)N[C@@H](CC(C)C)C(=O)N[C@@H](CC(C)C)C(=O)N[C@@H](C)C(=O)NCC(=O)NCC(=O)N1CCC[C@H]1C(=O)N[C@@H](CO)C(=O)N[C@@H](CO)C(=O)NCC(=O)N[C@@H](C)C(=O)N1CCC[C@H]1C(=O)N1CCC[C@H]1C(=O)N1CCC[C@H]1C(=O)N[C@@H](CO)C(N)=O)C(C)C` [Example 29] (H-Y[dA]EGTFISDYSILLDKK([AEEA-AEEA-γGlu-C18 diacid])AQ[Aib]EFVEWLLAGGPSSGAPPPS-NH2), for which the EC50 is greater than 5000 nM in assay [1], greater than 5000 nM in assay [2] and 0.00679 nM in assay [3].
